From PMC12621184, “Synthesis and Pharmacological Characterization of Nociceptin/Orphanin FQ Dimeric Ligands” (Journal of Medicinal Chemistry, 2025)
Bridge positions count the residues as written; N and C are the ends. Peptide text beside a SMILES is read from it. I, II: the chains in the order shown.

Tests used:
[1] = molecular target: T1, human NOP (Homo sapiens, UniProt P41146); experiment: NOP receptor–G protein interaction BRET assay; type: biochemical; set-up: expressed in transfected cells; host or cells: membranes of HEK293 cells stably coexpressing NOP-RLuc and Gβ1-RGFP; conditions: N = 5 experiments in duplicate; for EC50: membranes from HEK293 cells coexpressing NOP-RLuc and Gβ1-RGFP, room temperature, mean (CL95%), read-out: NOP–G protein interaction pEC50 (CL95%) (converted)
Description: A BRET interaction assay was used, as previously detailed in ref , to study the propensity of ligands to evoke interaction between the NOP receptor and to G protein. Membranes taken from HEK293 cells stably coexpressing the fusoproteins NOP-RLuc and Gβ1-RGFP were used. Such cells were grown in DMEM medium supplemented with 10% FBS, 2 mM L-glutamine, […] G418, […] hygromycin B, 100 IU/mL penicillin, and 100 IU/mL streptomycin in a humidified atmosphere with 5% CO2 at 37 °C. Cell membranes were thawed and resuspended in PBS supplemented with 0.01% BSA before the assay, and an amount of 3 μg of total protein was dispensed in each of the 96 wells together with 2 μM Prolume Purple Coelenterazine. All experiments were carried out at room temperature. Ligands were added, and averaged BRET ratios from 10 min measurements were computed. BRET ratios were computed as counts per second (CPS) obtained on a Victor Nivo (PerkinElmer) with 405 (10) nm and 510 (30) nm bandpass filters. Vehicles’ BRET ratios were derived from light passed through 510 divided by that passed through 405 filters. Vehicles BRET values were subtracted from all computations, and data sets were normalized as a fraction of N/OFQ maximal effects.
(§1) Concentration-response curves to agonists were analyzed by a four-parameter logistic nonlinear regression model: Effect = baseline + (E max – baseline)/(1 + 10^((logEC50–log[ligand])slope)). […] Experimental data were expressed as mean ± sem of at least 5 experiments. Potency values were expressed as the mean and CL95%. In vitro E max values were analyzed by one-way ANOVA, while in vivo latency data were evaluated by one-way ANOVA followed by Dunnett’s post hoc test. The proportion of mice losing the righting reflex was compared by Fisher’s exact test performed on raw data. GraphPad Prism 10.0 software was used for all of the analyses. The terminology employed is consistent with the International Union of Basic and Clinical Pharmacology (IUPHAR) recommendations. ,

[2] = molecular target: T1, human NOP; experiment: Calcium mobilization assay, CHO cells with NOP receptor and chimeric G protein; type: cell-based; set-up: expressed in transfected cells; conditions: for EC50: CHO cells coexpressing human NOP and Gαqi5, Fluo-4, 37 °C, mean (CL95%), N = 5 experiments in duplicate, read-out: Ca^2+ mobilization pEC50 (CL95%) (converted); for Ca^2+ mobilization E max ± sem: CHO cells coexpressing human NOP and Gαqi5, maximum change in percentage over baseline fluorescence, mean ± sem, N = 5 in duplicate
Description: Chinese hamster ovary (CHO) cells stably coexpressing the human NOP, μ, or κ opioid receptors and the Gαqi5 protein or the human δ and the GαqG66Di5 protein were used in this assay. , Cells were cultured in DMEM/F-12 (1:1) medium supplemented with 10% FBS, 2 mM L-glutamine, […], 100 IU/mL penicillin, and 100 IU/mL streptomycin. Cells were maintained at 37 °C in a humidified atmosphere with 5% CO2 and were seeded at 50 000 cells/well into 96-well black, clear-bottom plates 24 h before test. Loading for 45 min with a solution consisting of HBSS supplemented with 2.5 mM probenecid, 3 μM Fluo-4 AM, and 0.01% pluronic acid ensures the calcium-sensitive dye (Fluo-4) reaches the needed concentration inside the cell, while the exchange of the solution with 100 μL/well of buffer consisting of HBSS with 20 mM HEPES, 2.5 mM probenecid, and 500 μM Brilliant Black allows for fluorescence background to decrease. Serial dilutions of ligands were prepared in HBSS buffer with 20 mM HEPES and 0.02% bovine serum albumin (BSA) to minimize the ligands’ stickiness to plasticware. The automated microplate reader FlexStation II (Molecular Devices, CA, US) was employed at 37 °C to detect changes in fluorescence intensity. The effects of all compounds were expressed as the maximum change in percentage over the baseline fluorescence measured in samples treated with vehicles.
as §1

T1 sequence (P41146 whole entry): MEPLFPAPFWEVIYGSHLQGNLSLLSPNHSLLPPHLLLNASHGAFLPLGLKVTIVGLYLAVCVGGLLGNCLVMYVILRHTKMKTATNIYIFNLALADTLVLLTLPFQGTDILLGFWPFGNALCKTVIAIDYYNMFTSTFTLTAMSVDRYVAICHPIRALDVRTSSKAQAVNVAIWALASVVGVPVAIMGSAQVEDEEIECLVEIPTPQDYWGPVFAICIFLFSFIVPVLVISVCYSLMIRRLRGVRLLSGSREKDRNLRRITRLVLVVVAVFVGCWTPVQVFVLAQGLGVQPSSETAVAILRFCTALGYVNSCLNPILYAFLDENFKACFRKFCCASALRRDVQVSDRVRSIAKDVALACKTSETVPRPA

Row | SMILES | NOP–G protein interaction E max ± sem ([1]; effects normalized to N/OFQ-NH2 (E max = 1), mean ± sem) | EC50 [1] | EC50 [2] | Ca^2+ mobilization E max ± sem [2]
1 | CC(C)C[C@H](NC(=O)[C@H](CCCCN)NC(=O)[C@H](CCCNC(=N)N)NC(=O)[C@H](C)NC(=O)[C@H](CO)NC(=O)[C@H](CCCCN)NC(=O)[C@H](CCCNC(=N)N)NC(=O)[C@H](C)NC(=O)CNC(=O)[C@@H](NC(=O)[C@H](Cc1ccccc1)NC(=O)CNC(=O)CNC(=O)[C@@H](N)Cc1ccccc1)[C@@H](C)O)C(=O)N[C@@H](C)C(=O)N[C@@H](CSSC[C@H](NC(=O)[C@H](C)NC(=O)[C@H](CC(C)C)NC(=O)[C@H](CCCCN)NC(=O)[C@H](CCCNC(=N)N)NC(=O)[C@H](C)NC(=O)[C@H](CO)NC(=O)[C@H](CCCCN)NC(=O)[C@H](CCCNC(=N)N)NC(=O)[C@H](C)NC(=O)CNC(=O)[C@@H](NC(=O)[C@H](Cc1ccccc1)NC(=O)CNC(=O)CNC(=O)[C@@H](N)Cc1ccccc1)[C@@H](C)O)C(=O)N[C@@H](CCC(N)=O)C(N)=O)C(=O)N[C@@H](CCC(N)=O)C(N)=O [1j, [[Cys^16]N/OFQ-NH2]2] (I: H-FGGFTGARKSARKLACQ-NH2 / II: H-FGGFTGARKSARKLACQ-NH2; disulfide I:16-II:16) | 0.98 ± 0.02 | 0.174 nM | 1.38 nM | 312 ± 38 % over the baseline
2 | CC(C)C[C@H](NC(=O)[C@H](CCCCN)NC(=O)[C@H](CCCNC(=N)N)NC(=O)[C@H](C)NC(=O)[C@H](CO)NC(=O)[C@H](CSSC[C@H](NC(=O)[C@H](CCCNC(=N)N)NC(=O)[C@H](C)NC(=O)CNC(=O)[C@@H](NC(=O)[C@H](Cc1ccccc1)NC(=O)CNC(=O)CNC(=O)[C@@H](N)Cc1ccccc1)[C@@H](C)O)C(=O)N[C@@H](CO)C(=O)N[C@@H](C)C(=O)N[C@@H](CCCNC(=N)N)C(=O)N[C@@H](CCCCN)C(=O)N[C@@H](CC(C)C)C(=O)N[C@@H](C)C(=O)N[C@@H](CC(N)=O)C(=O)N[C@@H](CCC(N)=O)C(N)=O)NC(=O)[C@H](CCCNC(=N)N)NC(=O)[C@H](C)NC(=O)CNC(=O)[C@@H](NC(=O)[C@H](Cc1ccccc1)NC(=O)CNC(=O)CNC(=O)[C@@H](N)Cc1ccccc1)[C@@H](C)O)C(=O)N[C@@H](C)C(=O)N[C@@H](CC(N)=O)C(=O)N[C@@H](CCC(N)=O)C(N)=O [1c, [[Cys^9]N/OFQ-NH2]2] (I: H-FGGFTGARCSARKLANQ-NH2 / II: H-FGGFTGARCSARKLANQ-NH2; disulfide I:9-II:9) | – | 1.35 nM | 5.01 nM | 289 ± 18 % over the baseline
3 | CC(C)C[C@H](NC(=O)[C@H](CCCCN)NC(=O)[C@H](CCCNC(=N)N)NC(=O)[C@H](C)NC(=O)[C@H](CSSC[C@H](NC(=O)[C@H](CCCCN)NC(=O)[C@H](CCCNC(=N)N)NC(=O)[C@H](C)NC(=O)CNC(=O)[C@@H](NC(=O)[C@H](Cc1ccccc1)NC(=O)CNC(=O)CNC(=O)[C@@H](N)Cc1ccccc1)[C@@H](C)O)C(=O)N[C@@H](C)C(=O)N[C@@H](CCCNC(=N)N)C(=O)N[C@@H](CCCCN)C(=O)N[C@@H](CC(C)C)C(=O)N[C@@H](C)C(=O)N[C@@H](CC(N)=O)C(=O)N[C@@H](CCC(N)=O)C(N)=O)NC(=O)[C@H](CCCCN)NC(=O)[C@H](CCCNC(=N)N)NC(=O)[C@H](C)NC(=O)CNC(=O)[C@@H](NC(=O)[C@H](Cc1ccccc1)NC(=O)CNC(=O)CNC(=O)[C@@H](N)Cc1ccccc1)[C@@H](C)O)C(=O)N[C@@H](C)C(=O)N[C@@H](CC(N)=O)C(=O)N[C@@H](CCC(N)=O)C(N)=O [1d, [[Cys^10]N/OFQ-NH2]2] (I: H-FGGFTGARKCARKLANQ-NH2 / II: H-FGGFTGARKCARKLANQ-NH2; disulfide I:10-II:10) | – | 0.141 nM | 1.91 nM | 305 ± 42 % over the baseline
